Reference: PubChem BioAssay (NCI)
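Where inhibition never reached the appropriate level, the endpoint shown equals the highest concentration tested. Otherwise, values were interpolated linearly from a five-concentration, 48-hour dose response in 96-well plates. Definition used: TGI = concentration required for complete inhibition of growth.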

Tests used:
Assay in all cases: NCI tumour cell line growth inhibition, 48 h
[1] = tested on: RPMI-8226 leukemia
[2] = tested on: HCC-2998 colon
[3] = tested on: UACC-62 melanoma
[4] = tested on: MCF7 breast
[5] = tested on: NCI-H460 lung
[6] = tested on: OVCAR-5 ovarian
[7] = tested on: MDA-N
[8] = tested on: HL-60(TB) leukemia
[9] = tested on: SF-268 CNS
[10] = tested on: NCI/ADR-RES ovarian
[11] = tested on: SK-MEL-28 melanoma
[12] = tested on: SNB-75 CNS
[13] = tested on: NCI-H23 lung
[14] = tested on: U251 CNS
[15] = tested on: 786-0 renal
[16] = tested on: PC-3 prostate
[17] = tested on: DU-145 prostate
[18] = tested on: MDA-MB-231 breast
[19] = tested on: SK-MEL-5 melanoma
[20] = tested on: MDA-MB-435
[21] = tested on: LOX IMVI melanoma
[22] = tested on: CAKI-1 renal
[23] = tested on: UO-31 renal
[24] = tested on: MALME-3M melanoma
[25] = tested on: BT-549 breast
[26] = tested on: UACC-257 melanoma
[27] = tested on: MOLT-4 leukemia
[28] = tested on: SF-539 CNS
[29] = tested on: SK-MEL-2 melanoma
[30] = tested on: M14 melanoma
[31] = tested on: NCI-H226 lung
[32] = tested on: SF-295 CNS
[33] = tested on: HT29 colon
[34] = tested on: RXF 393 renal
[35] = tested on: SK-OV-3 ovarian
[36] = tested on: HOP-62 NSCLC
[37] = tested on: OVCAR-3 ovarian
[38] = tested on: K-562 leukemia
[39] = tested on: KM12 colon
[40] = tested on: COLO 205 colon
[41] = tested on: T-47D breast
[42] = tested on: OVCAR-4 ovarian
[43] = tested on: SW-620 colon
[44] = tested on: TK-10 renal
[45] = tested on: HCT-15 colon
[46] = tested on: SN12C renal
[47] = tested on: A549 NSCLC
[48] = tested on: IGROV1 ovarian
[49] = tested on: A498 renal
[50] = tested on: EKVX NSCLC
[51] = tested on: SNB-19 CNS
[52] = tested on: HCT-116 colon
[53] = tested on: HOP-92 NSCLC
[54] = tested on: SR leukemia
[55] = tested on: CCRF-CEM leukemia
[56] = tested on: NCI-H522 lung
[57] = tested on: ACHN renal
[58] = tested on: OVCAR-8 ovarian
[59] = tested on: HS 578T breast

Measured: TGI

C[C@H](CCC(=O)O)[C@H]1CC[C@H]2[C@@H]3[C@@H](O)C[C@@H]4C[C@H](O)CC[C@]4(C)[C@H]3CC[C@]12C
> 100 µM: all assays above
